The values below come from PubChem BioAssay (NCI).

Each structure is given as a SMILES string. “And” between values parts separate entries of the source, which are not always exact repeats. Identical values can stand only once.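 Results reflect a 48-hour exposure of cells in 96-well plates to compound at five concentrations. The concentration for 50% growth inhibition is given as GI50. At the TGI there is no net growth.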

The assay relates to MDA-MB-468 breast. The assay can be described thus: NCI anticancer screen, dose series, 48 h.
Regarding `COC(=O)c1ccc2c(c1)nc(-c1ccc(Cl)cc1)n2-c1cc(C(C)(C)C)[nH]n1`, the GI50 was 2400 nM and the TGI is 7980 nM.

On to `COc1cc(-c2ccc(-c3ccc(C(=N)N)s3)s2)cc(OC)c1OC`, for which the GI50 is 1820 nM and the TGI turned out to be 3700 nM.

Take `CS(=O)(=O)c1nccc(-c2c(-c3cccc(OCc4ccc(Cl)c(C(F)(F)F)c4)c3)nc3sccn23)n1`: the GI50 was 859 nM and the TGI was determined as 1660 nM.

For the molecule `O=C1NC(=NCCc2ccccc2Cl)S/C1=C\c1ccc2ncccc2c1`, the GI50 was 2170 nM and the TGI is > 18300 nM.

`C=C1C(=O)O[C@H]2[C@H]1CC/C(Cn1cc(CCC)nn1)=C\CC[C@@]1(C)O[C@@H]21`: the GI50 is 3650 nM and the TGI turned out to be 14900 nM.

In the case of `COc1cccc2c1C(=O)c1c(O)c3c(c(O)c1C2=O)C[C@@](O)(C(C)=O)C[C@@H]3OC1CC(N)C(O)C(C)O1` (some centres not stated), the GI50 is 62.3 nM and the TGI was found to be 313 nM.

As to `COc1ccc(/C=N/NC2=NC3C(S2)N(C)C(=O)N3C)cc1` (configuration not stated), the GI50 is 1950 nM and the TGI came to 5350 nM.

With `Cn1c(=O)c(F)c(Nc2ccc(I)cc2F)c2c(=O)n(C[C@@H](O)CO)cnc21`, the GI50 was 1800 nM and 590 nM; the TGI is 8660 nM and > 2090 nM.

With `O=C1NC(=NCc2ccccn2)S/C1=C\c1ccc2ncccc2c1`, the GI50 was 5970 nM and the TGI is > 25000 nM.

Regarding `CN1CCC(n2cc(Nc3ncc4c(=O)n(-c5c(Cl)cccc5Cl)cc(Br)c4n3)cn2)CC1`, the GI50 is 937 nM and the TGI worked out at 7270 nM.

With `COc1ccc(-n2c(N)c(C(=O)NCCN3CCOCC3)c3nc4ccccc4nc32)cc1OC`, the GI50 was 17900 nM and the TGI is > 100000 nM.

With `C[n+]1c2ccccc2c(NC2CCNCC2)c2[nH]c3ccccc3c21`, the GI50 was 200 nM and the TGI is 1260 nM.

Consider `COc1ccccc1Nc1nc(-c2cc3cccc(C(F)(F)F)c3oc2=O)cs1`, for which the GI50 was 97 nM and the TGI was 710 nM.

As for `Cc1ccc(/C=C2\CCOC2=O)cc1`, the GI50 is > 100000 nM and the TGI is > 100000 nM.

Turning to `COc1ccc(/C=C(/C(=O)N2CCNCC2)c2cc(OC)c(OC)c(OC)c2)cc1O`, the GI50 was 2270 nM and the TGI turned out to be 9710 nM.

As to `Oc1ccc2ccccc2c1/C=N\Nc1ccccn1`, the GI50 is 1590 nM and the TGI stood at 4870 nM.

For `O=C(CCN1CCCC1)Nc1ccc2c(NCCCCc3ccccc3)c3ccccc3nc2c1`, the GI50 was 811 nM and the TGI was determined as 2120 nM.

Turning to `Cc1ccc(/C=C(\C#N)n2nnc3cc(F)c(F)cc32)cc1`, the GI50 was 10300 nM and the TGI is 44400 nM.

With `C=C1C(=O)O[C@@H]2/C=C(/C)C3=CC(=O)[C@@](C)(C[C@H](OC(=O)/C(C)=C\C)[C@@H]12)O3`, the GI50 was 1140 nM and the TGI was determined as 5030 nM.

With `Cn1c2ccccc2c2c3c(c4c5ccccc5n(CCCCCC#N)c4c21)C(=O)N(O)C3=O`, the GI50 is 683 nM and the TGI was found to be 6120 nM.

With `CSC(=S)N/N=C(\C)c1ccccn1`, the GI50 is 68.5 nM and the TGI was found to be 1210 nM.

For `CCCCCCCCSC1=CC(=O)C(OC)=C(OC)C1=O`, the GI50 is 1430 nM and the TGI was determined as 2970 nM.

Turning to `C=C1C(=O)O[C@H]2[C@H]1CC/C(COC(=O)CCC(=O)OC/C1=C/CC[C@@]3(C)O[C@H]3[C@H]3OC(=O)C(=C)[C@@H]3CC1)=C\CC[C@@]1(C)O[C@@H]21`, the GI50 is 1560 nM and the TGI came to 4830 nM.

On to `Cc1ccc2c(n1)C(=O)C(Cl)=C(Nc1ccc(C(C)C)cc1)C2=O`, for which the GI50 is 512 nM and the TGI amounted to 1850 nM.

With `CNCCNc1nc2ccccc2c2c(=O)c3cccc(OC)c3sc12`, the GI50 is 1450 nM and the TGI came out at 3060 nM.

Regarding `Cn1c(=O)c(Cc2ccc(F)cc2F)cc2cnc(NC3CCOCC3)nc21`, the GI50 was 19600 nM and the TGI was > 25000 nM.

For the molecule `Cc1nc2cc(O)c(O)cc2cc1Oc1ccc(NC(=O)Nc2ccc(Cl)c(Cl)c2)cc1`, the GI50 was 6990 nM and the TGI turned out to be 17400 nM.

As for `NC(=O)NC(=O)CI`, the GI50 is 2480 nM and the TGI came to 7730 nM.

In the case of `CC(C)(C)CC(C)(C)Cc1ccc(OCCOCC[N+](C)(C)Cc2ccccc2)cc1`, the GI50 is 235 nM and the TGI came out at 1200 nM.

As to `Cc1ccccc1NC(=O)NC(CC(N)=O)c1ccc2c(c1)nc(-c1cccc(Oc3ccc(C(C)(C)C)cc3)c1)n2CCCN1CCCCC1C` (configuration not stated), the GI50 is 1780 nM and the TGI was determined as 3280 nM.

Turning to `CCOc1ccc2c(c1)/C(=C\C=C\C1CC(C)C3CC(OCC)CCC3N1CC)CC(C)N2CC` (configuration not stated), the GI50 was 280 nM and the TGI worked out at 1110 nM.

Turning to `Nc1nc(N)c2c(n1)NC(c1ccccc1)CC(c1ccc(Nc3nc(NCCO)nc(Nc4ccc(Cl)cc4)n3)cc1)=N2` (configuration not stated), the GI50 is 1510 nM and the TGI came out at 2990 nM.

As to `COC(=O)c1c(-c2ccccc2)csc1NC(=O)c1c(-c2ccccc2)noc1C`, the GI50 was 3200 nM and the TGI is > 100000 nM.

Take `Nc1nc(Cl)nc2c1ncn2C1O[C@H](CO)[C@@H](O)[C@@H]1F` (some centres not stated): the GI50 is 387 nM and the TGI is 21800 nM.

For the molecule `COc1ccc(C(=O)Nc2cccc(C3CC(=O)c4c(cc(OC)c(OC)c4OC)O3)c2)cc1` (configuration not stated), the GI50 is 940 nM and the TGI is > 100000 nM.

For the molecule `CCN1C(=O)N(c2c(F)c(OC)cc(OC)c2F)Cc2cnc3[nH]c(CN4CCOCC4)cc3c21`, the GI50 was 2290 nM and the TGI stood at 55900 nM.

As to `Fc1ccc(Nc2nc(Nc3ccc(-c4nc5ccccc5[nH]4)cc3)nc(N3CCCC3)n2)cc1`, the GI50 was 2750 nM and the TGI was determined as 6740 nM.

For the molecule `O=[N+]([O-])c1ccc2[nH]cc(-c3c4ccccc4cc4[nH]c5ccc([N+](=O)[O-])cc5c34)c2c1`, the GI50 is 2500 nM and the TGI came to 7710 nM.

Turning to `COc1ccc(C2CC(c3cc(OC)c(OC)c(OC)c3)=NN2)cc1` (configuration not stated), the GI50 was 4350 nM and the TGI turned out to be 64500 nM.

For `CN(C)CCn1cc(-c2ccc3c(Nc4ccc(CC(=O)Nc5cccc(F)c5)cc4)ncnc3c2)cn1`, the GI50 was 1260 nM and the TGI was found to be 2850 nM.

For `CCCCOC(=O)N[C@H]1CCc2cc(OC)c(OC)c(OC)c2-c2ccc(SC)c(=O)cc21`, the GI50 is < 10 nM and the TGI is 19400 nM.
